# Laboratory results: paper PMC6382696, “Drug Repurposing: The Anthelmintics Niclosamide and Nitazoxanide Are Potent TMEM16A Antagonists That Fully Bronchodilate Airways” (Frontiers in Pharmacology, 2019)
# Where two headings read alike, the source gives them in different places.
# Columns and labels:
# [1] = tested on: Wnt/β-catenin transcription; test: Wnt/β-catenin transcription TOPFlash reporter assay; format: cell-based; settings: Wnt TopFlash IC50 over TMEM16A eYFP IC50
# [2] = tested on: Wnt/β-catenin transcription; settings: ref Mook et al. (2015); read-out: Mook et al. Wnt/β-catenin TopFlash (IC50); cited from earlier work
# hTMEM16A (abc) = molecular target: T1, hTMEM16A (abc) (Homo sapiens, UniProt Q5XXA6, DEL476-501); test: medchem TMEM16A halide-sensitive YFP assay, 22-point dose-response; format: cell-based; parameters: expressed in transfected cells; settings: iodide as permeant anion, maximum concentration 55.6
# T1 sequence (Q5XXA6 with tags, fused parts or gaps isoform Q5XXA6-5 DEL539-564): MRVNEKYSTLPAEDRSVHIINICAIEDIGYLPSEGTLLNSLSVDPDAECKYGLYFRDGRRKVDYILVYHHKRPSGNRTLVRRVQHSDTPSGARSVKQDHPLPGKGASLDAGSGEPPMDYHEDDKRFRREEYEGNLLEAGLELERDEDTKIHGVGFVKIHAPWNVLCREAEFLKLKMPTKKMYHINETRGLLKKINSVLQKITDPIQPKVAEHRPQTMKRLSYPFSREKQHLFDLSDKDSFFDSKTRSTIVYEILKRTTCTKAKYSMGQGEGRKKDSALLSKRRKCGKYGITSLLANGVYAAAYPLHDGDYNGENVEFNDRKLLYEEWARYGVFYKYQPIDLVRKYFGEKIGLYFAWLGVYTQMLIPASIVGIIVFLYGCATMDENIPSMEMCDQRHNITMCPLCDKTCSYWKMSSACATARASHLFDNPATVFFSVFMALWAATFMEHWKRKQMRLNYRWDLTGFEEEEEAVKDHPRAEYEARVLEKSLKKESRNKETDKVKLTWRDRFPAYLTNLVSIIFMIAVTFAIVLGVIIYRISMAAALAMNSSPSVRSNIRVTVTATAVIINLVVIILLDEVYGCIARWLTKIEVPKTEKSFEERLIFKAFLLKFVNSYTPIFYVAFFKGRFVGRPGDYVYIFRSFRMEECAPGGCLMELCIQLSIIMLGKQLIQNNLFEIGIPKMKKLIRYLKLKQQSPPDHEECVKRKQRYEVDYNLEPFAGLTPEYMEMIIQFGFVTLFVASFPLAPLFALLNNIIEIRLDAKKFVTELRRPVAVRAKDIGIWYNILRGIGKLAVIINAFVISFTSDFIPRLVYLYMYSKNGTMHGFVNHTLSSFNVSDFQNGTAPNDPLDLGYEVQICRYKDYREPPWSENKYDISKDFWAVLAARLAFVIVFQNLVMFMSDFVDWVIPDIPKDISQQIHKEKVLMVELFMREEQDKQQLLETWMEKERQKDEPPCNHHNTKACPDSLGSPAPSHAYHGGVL
# Procedure: The TMEM16A HEK293T eYFP (H149Q, I153L) stable cell line for medchem support was generated by transfecting 10 μg of linearized hTMEM16A(abc) DNA constructs into HEK293T eYFP (H149Q,I153L) stable cells. The transfected cells were cultured under 200 μg/ml of hygromycin B selection for 20 days and the stable pool was single cell seeded in 96 well plate and duplicated plate were made after single cell clones were formed. YFP function assay were performed on duplicated plate and clones producing higher changes in fluorescence from the YFP assay were chosen for further expansion to form a stable cell line.
# Plates were incubated for 24 h at 37°C with 5% CO2. On the assay day, medium was removed and replaced with 20 μl/well of assay buffer (Hank’s Balanced Salt Solution with 10 mM HEPES pH 7.4), 10 μl/well of 40x diluted compounds was added to assay plate and it was incubated at room temperature for 30 min, after which baseline fluorescence was read in the FLIPR instrument for 10 s. Then, 5 μl/well of a 3x trigger solution (24 mM iodide, 3 μM ionomycin in assay buffer) was added and the fluorescence kinetic trace was recorded for 2 min.
# TMEM16A (acd) = molecular target: T2, TMEM16A (acd) (Homo sapiens, UniProt Q5XXA6); test: QPatch whole-cell electrophysiology, HEK293 TMEM16A (acd); format: cell-based; settings: supplement; 170 nM free intracellular calcium; read-out: IC50 for blocking the TMEM16A outward current, QPatch
# T2 sequence (Q5XXA6 1-986): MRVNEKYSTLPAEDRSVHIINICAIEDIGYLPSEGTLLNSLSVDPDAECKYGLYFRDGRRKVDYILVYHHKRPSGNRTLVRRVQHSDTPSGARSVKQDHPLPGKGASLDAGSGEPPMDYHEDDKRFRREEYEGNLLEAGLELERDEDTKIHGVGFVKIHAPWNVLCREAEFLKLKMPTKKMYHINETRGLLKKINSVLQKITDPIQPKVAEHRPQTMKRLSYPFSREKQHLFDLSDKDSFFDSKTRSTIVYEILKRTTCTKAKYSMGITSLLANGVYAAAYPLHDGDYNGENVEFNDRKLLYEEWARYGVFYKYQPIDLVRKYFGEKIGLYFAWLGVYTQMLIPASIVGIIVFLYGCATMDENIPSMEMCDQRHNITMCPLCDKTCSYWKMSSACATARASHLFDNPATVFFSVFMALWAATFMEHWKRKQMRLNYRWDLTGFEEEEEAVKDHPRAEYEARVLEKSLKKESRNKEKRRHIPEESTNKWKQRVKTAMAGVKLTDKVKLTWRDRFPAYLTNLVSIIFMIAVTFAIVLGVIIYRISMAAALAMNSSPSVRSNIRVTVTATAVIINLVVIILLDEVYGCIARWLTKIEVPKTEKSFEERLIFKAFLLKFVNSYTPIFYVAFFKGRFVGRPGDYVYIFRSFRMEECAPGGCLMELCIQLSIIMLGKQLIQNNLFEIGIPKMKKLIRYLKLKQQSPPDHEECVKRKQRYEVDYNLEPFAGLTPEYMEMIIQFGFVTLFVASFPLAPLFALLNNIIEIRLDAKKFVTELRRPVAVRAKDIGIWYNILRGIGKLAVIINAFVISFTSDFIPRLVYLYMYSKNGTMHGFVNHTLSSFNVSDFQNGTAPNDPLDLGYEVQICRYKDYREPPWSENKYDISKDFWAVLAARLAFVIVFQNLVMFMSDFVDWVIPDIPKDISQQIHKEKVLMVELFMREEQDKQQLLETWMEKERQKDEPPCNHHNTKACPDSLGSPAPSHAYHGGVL
# Source text: HEK293 cells stably expressing the TMEM16A (acd) variant were purchased from SB Drug Discovery. The HEK293 TMEM16A (abc) stable cell line was from ChanTest and COLO-205 cells were purchased from ATCC. The same standard buffers and recording conditions listed below were used for QPatch studies on all three cell lines.
# Recording Solutions: were made weekly as below and stored at room temperature until used. It is recommended not to add ATP to internal solution until immediately before using on the QPatch. The external buffer (in mM) was 140 NaCl, 4 KCl, 2 CaCl2, 1 MgCl2, 10 HEPES, 10 Glucose, pH7.4, while the internal buffer (in mM) was 110 CsCl, 20 TEA-Cl, 5.374 CaCl2, 1.75 MgCl2, 10 EGTA, 10 HEPES, 4 Na2ATP, pH 7.2.
# Once established in whole-cell configuration, cells were clamped to a holding potential (Vhold) of 0 mV on 48 well single hole patch plate. A standardized IV protocol was used to elicit ionic current through the TMEM16A chloride channel at 20 s intervals. Steady-state voltage pulses were from −100 mV to +100 mV in +20 mV steps for a duration of 500 ms. After each pulse the voltage was returned to −100 mV for 50 ms to obtain tail currents, and then returned to the holding potential of 0 mV until the beginning of the next sweep. […] This ensures a minimum of 60 s per concentration incubation before measuring current block. Currents were acquired at 10 kHz and filtered at 2 kHz, leak subtraction and Rseries were disabled. A 1 MΩ minimum resistance was set because cells are held in an open channel state and therefore resistance is low.
# A cumulative concentration response was measured where each cell is exposed to five concentrations of test article with a dilution factor of 1:5 (e.g., 0.048, 0.24, 1.2, 6, and 30 μM). Cells were recorded for ∼60 s per solution/compound addition. Initially, external solution is applied twice to allow currents to stabilize. Then vehicle (from the saline reservoir) is added twice to monitor any effect 0.3% DMSO might have on currents. This leads directly into the concentration runs by applying Concentration 1 (single addition) for 1 min. Concentration 2 is then applied for the subsequent minute, etc. Recovery/washout was monitored for a final minute with a final external solution addition.
# […] […] Each cell’s current magnitude was then normalized to itself at the initial 0.3% vehicle control period prior to compound application. This step is to account for differences in current size for each cell. Normalized responses to test article were plotted against their concentrations to reveal a concentration-inhibition plot.
# A Normalized Group Hill fit was then performed on the plotted results to yield a pooled IC50 value, reconstructed from a minimum of two cells/concentration. The baseline response as well as the full response were constrained to 1 and 0, respectively.
# human bronchial rings = test: Wire myograph bronchodilation of histamine pre-contracted human bronchial rings (Biopta)
# Source text: Details of bronchodilator studies shown in Figure 5H, 6 and Supplementary Figure 40 are provided below as part of the end assay report on Study CUR011 by Lee Christie (Biopta). Donors with any of the following conditions were excluded from the study: asthma, COPD, emphysema, lung cancer, cystic fibrosis, pulmonary fibrosis, pulmonary hypertension, pneumonia. Donors were also excluded if they had smoked in the past 12 months. Non-transplantable lung tissue was acquired from organ donors post mortem. Any macroscopically diseased/necrotic tissue was rejected. […] Human airway rings were set up under isometric conditions on a wire myograph in order to examine the influence of the test articles on bronchodilation. In order to assess tissue viability, the airways were challenged with carbachol (10 μM) and then isoprenaline (10 μM) to assess their constriction and relaxation responses, respectively. […] Viable airways were pre-constricted with histamine (10 μM), then exposed to one of the following cumulative concentration response curves (CCRCs): positive control, vehicle (water, volume matched to positive control), test article, vehicle (DMSO concentration matched to test articles). At the end of each CCRC, theophylline (2.2 mM) was added to induce maximal relaxation of the tissue. […] Airways were re-tensioned to 1.0 – 1.5 g if the tension had dropped below 1.0 g during the first 30 min of equilibration. (b) Airways were exposed to carbachol (bath concentration 10 μM) in order to measure their contractile responses and then isoprenaline (10 μM) in order to assess their relaxation. Airways were washed out and allowed to return to baseline. (c) Airways were pre-constricted with histamine (10 μM) before conducting a CCRC to the test article, the positive control (isoprenaline), test article vehicle or positive control vehicle.
# human CFTR = molecular target: T3, human CFTR (Homo sapiens, UniProt P13569); test: IonWorks Barracuda electrophysiology, CFTR chloride current in CHO cells; format: cell-based; settings: 10 µM compound, CHO CFTR
# T3 construct: host or cells: CHO
# T3 sequence (P13569 whole entry): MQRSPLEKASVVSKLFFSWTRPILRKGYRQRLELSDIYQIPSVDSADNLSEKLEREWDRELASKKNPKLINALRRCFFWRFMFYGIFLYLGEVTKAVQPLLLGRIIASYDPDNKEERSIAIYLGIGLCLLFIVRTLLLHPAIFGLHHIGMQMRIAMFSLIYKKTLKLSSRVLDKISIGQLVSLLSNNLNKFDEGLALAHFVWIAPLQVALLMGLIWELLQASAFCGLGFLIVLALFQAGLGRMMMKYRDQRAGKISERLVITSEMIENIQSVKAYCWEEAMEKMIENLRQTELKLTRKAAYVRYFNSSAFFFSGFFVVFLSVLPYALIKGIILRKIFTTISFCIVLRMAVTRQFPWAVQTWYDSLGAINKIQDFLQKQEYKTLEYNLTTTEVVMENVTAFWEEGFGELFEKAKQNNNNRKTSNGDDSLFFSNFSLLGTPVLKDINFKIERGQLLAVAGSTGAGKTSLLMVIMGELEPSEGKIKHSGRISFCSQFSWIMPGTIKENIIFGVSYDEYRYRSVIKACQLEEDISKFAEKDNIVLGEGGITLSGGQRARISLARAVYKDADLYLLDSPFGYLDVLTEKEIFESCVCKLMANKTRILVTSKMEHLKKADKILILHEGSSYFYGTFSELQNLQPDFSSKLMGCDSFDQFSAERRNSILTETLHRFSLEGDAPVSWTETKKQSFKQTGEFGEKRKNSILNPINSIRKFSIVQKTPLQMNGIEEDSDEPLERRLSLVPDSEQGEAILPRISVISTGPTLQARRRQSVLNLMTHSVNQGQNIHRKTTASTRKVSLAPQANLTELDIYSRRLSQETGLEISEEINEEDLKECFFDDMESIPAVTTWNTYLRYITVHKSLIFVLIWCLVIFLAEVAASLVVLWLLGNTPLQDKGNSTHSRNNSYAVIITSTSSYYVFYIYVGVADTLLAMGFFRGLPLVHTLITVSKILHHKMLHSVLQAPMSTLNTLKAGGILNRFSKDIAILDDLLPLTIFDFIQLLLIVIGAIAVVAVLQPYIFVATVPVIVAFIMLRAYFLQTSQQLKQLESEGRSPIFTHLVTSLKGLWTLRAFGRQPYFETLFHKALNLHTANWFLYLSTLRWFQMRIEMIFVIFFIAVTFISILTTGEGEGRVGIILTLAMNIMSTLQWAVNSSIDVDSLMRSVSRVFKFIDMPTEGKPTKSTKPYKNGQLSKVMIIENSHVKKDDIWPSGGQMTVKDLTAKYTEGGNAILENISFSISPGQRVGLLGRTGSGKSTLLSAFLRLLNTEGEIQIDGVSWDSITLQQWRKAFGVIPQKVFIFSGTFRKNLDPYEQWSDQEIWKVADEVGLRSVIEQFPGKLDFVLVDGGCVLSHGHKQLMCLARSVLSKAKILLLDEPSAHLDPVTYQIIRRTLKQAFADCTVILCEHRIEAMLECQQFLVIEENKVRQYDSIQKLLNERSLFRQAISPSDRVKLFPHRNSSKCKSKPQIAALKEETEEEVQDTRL
# Source text: HEK293 cells stably expressing the human TMEM16A (abc) variant and CHO cells expressing the human CFTR gene were from ChanTest. The IonWorks Barracuda (IWB) procedure and data provided are from outsourced studies performed at ChanTest (Charles River Discovery, Cleveland, OH, United States) who were blinded as to the identity of the test articles or compounds provided by Amgen.
# For measuring compound effects on CFTR chloride currents, compounds were serially diluted in HEPES-buffered physiological saline to 2X final concentration allowing for an 8-point dose-response analysis. Test article concentrations were applied to naïve cells (n = 4, where n = the number of replicate wells/concentration) via steel needles, where each application will consist of addition of 20 μl of 2X concentrated test article solution to a final 40 μl volume in the extracellular well of the Population Patch ClampTM (PPC) planar electrode. After mixing (three times), duration of exposure to compound is at least 5 min. Final solutions contain 0.3% DMSO. […] The current is measured using a pulse pattern consisting of a voltage step to +60 mV, 100 ms duration; voltage ramp from +60 to −120 mV, 1000 ms; step to −120 mV, 200 ms; and step to 0 mV, 200 ms; from holding potential, −30 mV. Current amplitudes were measured at the voltage step to 0 mV. The recording procedure was as follows: extracellular buffer is loaded into the PPC plate wells (11 μl per well). Cell suspension was pipetted into the wells (9 μl per well) of the PPC planar electrode. After establishment of a whole-cell configuration via amphotericin patch perforation similar to that described earlier, membrane currents were recorded using the patch clamp amplifier in the IonWorks^TM Barracuda system. Two recordings (scans) were then performed, one scan before and a second scan 5 min after test article (TA) application. […] Data acquisition and analyses were performed using the IonWorks Barracuda^TM system operation software (version 2.0.2). The decrease in current amplitude after test article application was used to calculate the percent block relative to control. […] Inhibition effect was calculated as: % Inhibition = (1 – ITA/IBaseline) × 100%, where IBaseline and ITA were the currents measured in control (before addition of a test article) and in the presence of a test article, respectively.
# [3] = supplement, read-out: TMEM16A eYFP Assay IC50
Compound,IC50 [2],IC50 (hTMEM16A (abc); [3]),also measured
O=C(Nc1ccc(Cl)c(Cl)c1)c1cc(Cl)ccc1O [Cpd 14],730 nM,,"IC50 Ratio, Wnt/TMEM16A [1]: 8.11; IC50 (hTMEM16A (abc); TMEM16A eYFP Assay IC50, supplement): 90 nM"
O=C(Nc1ccccc1C(=O)Nc1nnc(C(F)(F)F)s1)c1ccccc1Cl [CID# 2806957],,,IC50 (TMEM16A (acd)): 670 nM
O=C(Nc1cccc(C(F)(F)F)c1)c1cc(Cl)ccc1O [Cpd 9],890 nM,130 nM,"IC50 Ratio, Wnt/TMEM16A [1]: 6.85"
O=C(Nc1c(Cl)cccc1Cl)c1cc(Cl)ccc1O [Cpd 15],> 12000 nM,,
CCCn1c(SCC(=O)NCC(F)(F)F)nc2ccccc2c1=O [compound 2100101],,3330 nM,
CC1(C)C(O)C1C#Cc1ccccc1 (centres unmarked) [compound 598689],,466 ± 101 nM,
Cc1ccc(-c2nnn(CC(=O)N(c3cccc(C(F)(F)F)c3)C(C(=O)NC(C)(C)C)c3cccs3)n2)cc1 (centres unmarked) [compound 3179204],,334 nM,
NCCNCCNC(=O)c1cc2ccccc2cc1O [compound 111758],,91 ± 28 nM,
O=C(Nc1c(F)cccc1F)c1cc(Cl)ccc1O [Cpd 18],> 12000 nM,13400 nM,
"CC(C)(C)NCC(O)c1ccc(O)c(CO)c1 (centres unmarked) [Salbutamol, salbutamol]",,,"EC50 (human bronchial rings; Homo sapiens, 10 μM histamine, read-out: EC50 bronchodilating histamine precontracted human airways): 119 nM; time to open airways (human bronchial rings; summary): < 7 min"
CFTRinh-172,,,effect on CFTR chloride current (human CFTR): fully inhibited
